Here are results for 23 compounds from patent EP1614683B1, “Indazole compounds and pharmaceutical compositions for inhibiting protein kinases, and methods for their use” (priority 1999, dated 2001).

Where two headings read alike, the source gives them in different places.

Data set [1] relates to human umbilical vein endothelial cells (HUVEC). The experiment in a line: HUVEC proliferation assay (VEGF-stimulated, MTT). Type of data set: cell-based. The following applies: Table 1. The method, then: This assay determines the ability of a test compound to inhibit the growth factor-stimulated proliferation of human umbilical vein endothelial cells ("HUVEC"). HUVEC cells (passage 3-4, Clonetics, Corp.) were thawed into EGM2 culture medium (Clonetics Corp) in T75 flasks. Fresh EGM2 medium was added to the flasks 24 hours later. Four or five days later, cells were exposed to another culture medium (F12K medium supplemented with 10% fetal bovine serum (FBS), 60 µg/mL endothelial cell growth supplement (ECGS), and 0.1 mg/mL heparin). Exponentially-growing HUVEC cells were used in experiments thereafter. Ten to twelve thousand HUVEC cells were plated in 96-well dishes in 100 µl of rich, culture medium (described above). The cells were allowed to attach for 24 hours in this medium. The medium was then removed by aspiration and 105 µl of starvation media (F12K+1% FBS) was added to each well. After 24 hours, 15 µl of test agent dissolved in 1% DMSO in starvation medium or this vehicle alone was added into each treatment well; the final DMSO concentration was 0.1%. One hour later, 30 µl of VEGF (30 ng/mL) in starvation media was added to all wells except those containing untreated controls; the final VEGF concentration was 6 ng/mL. Cellular proliferation was quantified 72 hours later by MTT dye reduction, at which time cells were exposed for 4 hours MTT (Promega Corp.).

A further data set can be described thus: in vitro. Type of data set: in vitro ADME, human. How it is done: Compound metabolism in human liver microsomes was measured by LC-MS analytical assay procedures as follows. First, human liver microsomes (HLM) were thawed and diluted to 5 mg/mL with cold 100 mM potassium phosphate (KPO4) buffer. Appropriate amounts of KPO4 buffer, NADPH-regenerating solution (containing B-NADP, glucose-6-phosphate, glucose-6-phosphate dehydrogenase, and MgCl2), and HLM were preincubated in 13 x 100 mm glass tubes at 37 C for 10 min. (3 tubes per test compound--triplicate). Test compound (5 µM final) was added to each tube to initiate reaction and was mixed by gentle vortexing, followed by incubation at 37 °C. At t=0, 2 h, a 250-µL sample was removed from each incubation tube to separate 12 x 75 mm glass tubes containing 1 mL ice-cold acetonitrile with 0.05 µM reserpine. […] Supernatant was transferred to new 12 x 75 mm glass tubes and evaporated by Speed-Vac centrifugal vacuum evaporator. Samples were reconstituted in 200 µL 0.1 % formic acid/acetonitrile (90/10) and vortexed vigorously to dissolve. The samples were then transferred to separate polypropylene microcentrifuge tubes and centrifuged at 14000 x g for 10 min. (Fisher Micro 14, S/N M0017580). For each replicate (#1-3) at each timepoint (0 and 2 h), an aliquot sample of each test compound was combined into a single HPLC vial insert (6 total samples) for LC-MS analysis, which is described below.

The next data set addresses LCK tyrosine kinase (Homo sapiens, UniProt P06239, C224D/P223M). Kind of data set: LCK spectrophotometric assay. Type of data set: biochemical. The conditions noted are these: Table 1; compound concentration 1 µM; read-out: Lck-P* (% inhibition). The method, then:
The spectrophotometric assay was carried out as described above for VEGF-R2, except for the following changes in concentration: LCK = 60 nM, MgCl2 = 0 mM, poly(E4Y1) = 20 mM.

The target of another data set is human FGF-R1 (Homo sapiens, UniProt P11362, C488A/C584S/L457V). The experiment in a line: FGF-R spectrophotometric assay. The following applies: Table 1; compound concentration 1 µM; read-out: FGF-P* (% inhibition). Type of data set: biochemical. The method, then:
The spectrophotometric assay was carried out as described above for VEGF-R2, except for the following changes in concentration: FGF-R = 50 nM, ATP = 2 mM, and poly(E4Y1) =15 mM.

Data set [2] deals with unphosphorylated VEGF-R2Δ50 (Homo sapiens, UniProt P35968, DEL940-989/E990V). Kind of data set: biochemical. The following applies: for inhibition at 0.05 µM: read-out: FLVK ** (% inhibition); for inhibition at 1 µM: read-out: FLVK* (% inhibition).
Chain of unphosphorylated VEGF-R2Δ50 (P35968 with tags, fused parts or gaps DEL940-989/E990V limits assumed): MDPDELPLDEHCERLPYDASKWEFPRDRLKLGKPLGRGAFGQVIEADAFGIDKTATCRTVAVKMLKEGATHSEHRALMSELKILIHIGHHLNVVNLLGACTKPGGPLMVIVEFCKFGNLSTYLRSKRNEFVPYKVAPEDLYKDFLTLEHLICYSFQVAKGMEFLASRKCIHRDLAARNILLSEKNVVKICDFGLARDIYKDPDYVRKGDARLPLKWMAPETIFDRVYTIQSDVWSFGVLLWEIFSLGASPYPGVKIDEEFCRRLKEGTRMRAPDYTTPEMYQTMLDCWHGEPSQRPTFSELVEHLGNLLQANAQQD
The mark [3] stands for this setting: Homo sapiens, HUVEC, + albumin, read-out: HUVEC + albumin IC50.
The mark [4] stands for this setting: Homo sapiens, HUVEC, read-out: HUVEC IC50.
[5] abbreviates: human liver microsomes, 5 µM test compound, 37 °C, 2 h.

Chain of LCK tyrosine kinase (P06239 223-509 P223M/C224D): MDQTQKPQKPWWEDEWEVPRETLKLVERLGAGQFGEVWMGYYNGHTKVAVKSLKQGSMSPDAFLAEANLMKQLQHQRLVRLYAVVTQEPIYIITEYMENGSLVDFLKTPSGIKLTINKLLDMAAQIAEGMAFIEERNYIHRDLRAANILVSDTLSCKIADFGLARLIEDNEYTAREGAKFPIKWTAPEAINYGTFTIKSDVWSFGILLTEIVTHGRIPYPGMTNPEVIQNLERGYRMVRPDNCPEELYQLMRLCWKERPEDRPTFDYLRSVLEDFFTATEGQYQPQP
Chain of human FGF-R1 (P11362 456-766 L457V/C488A/C584S): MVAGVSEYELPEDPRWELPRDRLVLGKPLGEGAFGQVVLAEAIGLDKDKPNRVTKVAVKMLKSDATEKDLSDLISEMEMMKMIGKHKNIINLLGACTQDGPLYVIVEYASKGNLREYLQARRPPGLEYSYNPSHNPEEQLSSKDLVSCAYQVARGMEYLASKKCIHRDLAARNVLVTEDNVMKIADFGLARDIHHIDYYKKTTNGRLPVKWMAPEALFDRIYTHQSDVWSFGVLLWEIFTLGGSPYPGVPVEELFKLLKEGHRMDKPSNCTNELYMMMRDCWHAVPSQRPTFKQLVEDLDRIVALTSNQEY

As for `CN(c1cccc(NC(=O)c2ccccc2)c1)c1ccc2c(/C=C/c3ccccc3)n[nH]c2c1` [12(b), N-{3-[Methyl-(3-styryl-1H-indazol-6-yl)-amino]-phenyl}-benzamide], the IC50 in data set [1] (setting [3]) was found to be 44 nM; in data set [1] (setting [4]), 4.8 nM. The compound also yielded a remaining at 2 h, 5 µM in “in vitro” (human, microsomes) of 29%. Besides, the inhibition at 1 µM at LCK tyrosine kinase was 32%.

Consider `O=C(c1cccc(NC(=O)c2cccc(Cl)n2)c1)c1ccc2c(/C=C/c3ccccc3)n[nH]c2c1` [19(m), 6-[3-(6-chloropyridin-2-ylcarboxamido)benzoyl]-3-E-styryl-1H-indazole], for which, in data set [1] (setting [3]), the IC50 came to 94 nM. For the same compound, the inhibition at 1 µM on human FGF-R1 was found to be 23%; on LCK tyrosine kinase, 35%. Further, the “% remain (HLM, 2 h)” value in “in vitro” (setting [5]) worked out at 61%.

On to `O=C(Nc1cccc(C(=O)c2ccc3c(/C=C/c4ccccc4)n[nH]c3c2)c1)c1ccnc(Cl)c1` [19(o), 6-[3-(2-chloropyridin-4-ylcarboxamido)benzoyl]-3-E-styryl-1H-indazole], for which the inhibition at 0.05 µM in data set [2] is 89%.

Take `CNC(=O)c1ccccc1Nc1ccc2c(/C=C/c3ccccn3)n[nH]c2c1` [Example 39(a), 6-[2-(Methylcarbamoyl)phenylanzino]-3-E-[2-(pyridin-2-yl)ethenyl]-1H-indazole]: the “% remain (HLM, 2 h)” value in the data set “in vitro” (human, microsomes, 2 h, 5 µM) was 70%.

Regarding `O=CNc1ccccc1/C=C/c1n[nH]c2cc(C(=O)c3cccc(NC(=O)c4ccccc4)c3)ccc12` [Example 43, 6-(3-Benzamidobenzoyl)-3-E-[2-(2-formamidophenyl)ethenyl]-1H-indazole], the “% remain (HLM, 2 h)” value in the data set “in vitro” (human, microsomes, 2 h, 5 µM) is listed as 2%.

In the case of `O=C(c1cccc(NC(=O)c2cccc3[nH]ccc23)c1)c1ccc2c(/C=N/n3cccc3)n[nH]c2c1` [Example 45(a), 6-[3-(Indol-4-ylcarboxamido)benzoyl]-3-E-[N-(pyrrol-1-yl)iminomethyl]-1H-indazole], the “% remain (HLM, 2 h)” value in the data set “in vitro” (human, microsomes, 2 h, 5 µM) came to 97%.

As for `Cc1cc(C(=O)Nc2cc(Nc3ccc4c(/C=C/c5ccccn5)n[nH]c4c3)c(F)cc2C)n(C)n1` [Example 48(b), 6-[N-(5-((1,3-Dimethyl-1H-pyrazol-5-yl)carboxamido)-2-fluoro-4-methylphenyl)amino]-3-E-[2-(pyridin-2-yl)ethenyl]-1H-indazole], the inhibition at 1 µM at human FGF-R1 was determined as 77%; on LCK tyrosine kinase, 6%. For the same compound, the inhibition at 0.05 µM in data set [2] stood at 97%.

As to `C#CCNC(=O)c1ccccc1C(=O)c1ccc2c(/C=C/c3ccccn3)n[nH]c2c1` [Example 56], the inhibition at 0.05 µM in data set [2] stood at 5%.

`C(=C\c1n[nH]c2cc(-c3cccnc3)ccc12)/c1ccccc1` [Reference Example 27(e), 6-pyridin-3-yl-3-E-styryl-1H-indazole]: the inhibition at 1 µM in data set [2] turned out to be 34%.

As for `C(=C\c1n[nH]c2cc(-c3ccncc3)ccc12)/c1ccccc1` [Reference Example 27(f)], the inhibition at 1 µM in data set [2] was determined as 49%.

`Oc1ccc(-c2ccc3c(/C=C/c4ccccc4)n[nH]c3c2)cn1` [Reference Example 28(c), 6-(2-hydroxypyridin-5-yl)-3-E-styryl-1H-indazole]: the inhibition at 1 µM in data set [2] is 34%.

As to `COc1cccc(/C=C/c2n[nH]c3cc(-c4ccncc4)ccc23)c1` [Reference Example 29(e)], in data set [2], the inhibition at 1 µM amounted to 33%.

For `C(=C\c1n[nH]c2cc(-c3ccncc3)ccc12)/c1nc2ccccc2[nH]1` [Reference Example 29(q), 6-pyrid-4-yl-3-E-[2-(benzimidazol-2-yl)ethenyl]-1H-indazole], the inhibition at 1 µM in data set [2] came out at 11%.

With `NC(=O)c1ccccc1Sc1ccc2c(/C=C/c3ccccn3)n[nH]c2c1` [Reference Example 35(d), 6-(2-Carbamoylphenylsulfanyl)-3-E-[2-(pyridin-2-yl)ethenyl]-1H-indazole], the inhibition at 0.05 µM in data set [2] was 76%.

Take `O=C(NCc1cccc(F)c1)c1ccccc1Sc1ccc2c(/C=C/c3ccccn3)n[nH]c2c1` [Reference Example 35(ff)]: the IC50 in data set [1] (setting [3]) is 5.8 nM. The results for the inhibition at 1 µM at human FGF-R1 and on LCK tyrosine kinase were 75% and 25%, respectively. In “in vitro” (setting [5]), the “% remain (HLM, 2 h)” value was 31%.

Consider `CNCCNC(=O)c1ccccc1Sc1ccc2c(/C=C/c3ccccn3)n[nH]c2c1` [Reference Example 35(gg), 6-[2-(2-(methylamino)ethylcarbamoyl)phenylsulfanyl]-3-E-[2-(pyridin-2-yl)ethenyl]-1H-indazole], for which the inhibition at 0.05 µM in data set [2] came out at 23%.

For the compound `CN(O)C(=O)c1ccccc1Sc1ccc2c(/C=C/c3ccccn3)n[nH]c2c1` [Reference Example 35(o), 6-[2-(N-Hydroxy-N-methylcarbamoyl)phenylsufanyl]-3-E-[2-(pyridin-2-yl)ethenyl]-1H-indazole], the inhibition at 1 µM on human FGF-R1 is 44%; at LCK tyrosine kinase, 17%. Also, in data set [2], the inhibition at 0.05 µM worked out at 39%.

For `CONC(=O)c1ccccc1Sc1ccc2c(/C=C/c3ccccn3)n[nH]c2c1` [Reference Example 35(r), 6-[2-(methoxycarbamoyl)phenylsulfanyl]-3-E-[2-(pyridin-2-yl)ethenyl]-1H-indazole], the IC50 in data set [1] (setting [3]) came to 2.3 nM; in data set [1] (setting [4]), 0.36 nM. Also, the “% remain (HLM, 2 h)” value in “in vitro” (setting [5]) stood at 51%. Also, the inhibition at 1 µM on LCK tyrosine kinase is 16%.

As for `N#CCNC(=O)c1ccccc1Sc1ccc2c(/C=C/c3ccccn3)n[nH]c2c1` [Reference Example 35(w), 6-[2-(Cyanomethylcarbamoyl)phenylsulfanyl]-3-E-[2-(pyridin-2-yl)ethenyl]-1H-indazole], the IC50 in data set [1] (setting [3]) amounted to 35 nM. Besides, in data set [2], the inhibition at 0.05 µM came to 59%.

As to `O=C(Nc1cccc(C(=O)c2ccc3c(/C=C/c4ccccn4)n[nH]c3c2)c1)c1ccncc1` [Reference Example 41(b), 6-[3-(pyridin-4-ylcarboxamido)benzoyl]-3-E-[2-(pyridin-2-yl)ethenyl]-1H-indazole], the IC50 in data set [1] (setting [3]) came to 9.8 nM; in data set [1] (setting [4]), 2 nM. Besides, the figures for the inhibition at 1 µM on human FGF-R1 and on LCK tyrosine kinase were 31% and 24%, respectively. Moreover, in “in vitro” (human liver microsomes, 5 µM test compound, 37 °C, 2 h, read-out: % remain (HLM, 2 h)), the remaining at 2 h, 5 µM turned out to be 80%.

As for `CC(=O)c1ccc(C(=O)Nc2cccc(C(=O)c3ccc4c(/C=C/c5ccccn5)n[nH]c4c3)c2)s1` [Reference Example 41(e), 6-[3-((5-acetylthien-2-yl)carboxamido)benzoyl]-3-E-[2-(pyridin-2-yl)ethenyl]-1H-indazole], the IC50 in data set [1] (setting [3]) worked out at 5.6 nM; in data set [1] (setting [4]), 0.15 nM; in data set [1] (+ albumin, read-out: HUVEC + albumin IC50), 6.1 nM. The figures for the inhibition at 1 µM at human FGF-R1 and on LCK tyrosine kinase were 31% and 21%, respectively. In addition, the “% remain (HLM, 2 h)” value in the data set “in vitro” (setting [5]) was 22%.

Regarding `CC(=O)Nc1cc(C(=O)c2ccc3c(/C=C/c4ccccn4)n[nH]c3c2)ccc1C` [Reference Example 41(gg), 6-(3-acetamido-4-methylbenzoyl)-3-E-[2-(pyridin-2-yl)ethenyl]-1H-indazole], the IC50 in data set [1] (setting [3]) worked out at 9.5 nM. In addition, the inhibition at 1 µM on LCK tyrosine kinase turned out to be 27%. Also, the inhibition at 0.05 µM in data set [2] came out at 84%.

Turning to `Cc1cc(C(=O)Nc2cccc(C(=O)c3ccc4c(/C=C/c5ccccn5)n[nH]c4c3)c2)n(C(C)C)n1` [Reference Example 41(x), 6-[3-((1-Isopropyl-3-methyl-1H-pyrazol-5-yl)carboxamido)benzoyl]-3-E-[2-(pyridin-2-yl)ethenyl]-1H-indazole], in data set [1] (setting [3]), the IC50 came to 4.6 nM. Also, the inhibition at 1 µM at LCK tyrosine kinase worked out at 66%. The inhibition at 0.05 µM in data set [2] came out at 98%.

As usually defined, the IC50 is the concentration needed to halve the response being measured. In general, inhibition refers to the relative decrease from the control value, in per cent.
